# From a melting point compilation (Tetko et al.; mined from patent text by program, amines drawn as free bases though some values may be those of a salt)
row,Structure (SMILES),melting point [°C]
1,CCCc1nc2c(N)nc3ccccc3c2n1CCCCN(OC)C(C)=O,138 to 140
2,Cn1nc(-c2c(F)cccc2Cl)nc1-c1ccc(Cl)nc1,118 to 120
3,O=C(c1cc2ccccc2[nH]1)N1CCCCC1,213 to 214
4,Cc1ccccc1-c1nsc(SN)n1,110 to 112
5,COC(=O)C[C@H](Br)C(N)=O,82 to 84
6,CC(C)(C)NC(=O)[C@@H]1CC(Cl)CN1C(=O)C(O)[C@H](Cc1ccccc1)NC(=O)[C@H](CC(N)=O)NC(=O)COc1ccc(NC(=O)OCc2ccccc2)cc1 (some centres not stated),113 to 115
7,Cc1cc(C)cc(NC(=O)Cc2ccc(O)cc2)c1,183 to 185
8,COc1ccccc1OCCCc1oc(N2CCOCC2)nc1-c1ccc(Cl)cc1,81 to 82
9,Cc1cccc(C(=O)CSC(=S)Nc2ccc(Cl)cn2)c1,126
10,CCOC(=O)c1cnc2ccc(C(F)(F)F)cc2c1O,> 260
11,COc1ccc(C(Cc2ccc(NC(=O)OC(C)(C)C)cc2)c2ccccc2)cc1OC1CCCC1 (configuration not stated),123
12,CCOC(=O)c1cn(Cc2ccc(OCc3coc(-c4ccccc4)n3)cc2)nc1-c1cccs1,114 to 115
13,CCCCCC(C)(C)NC(=O)CCl,36 to 37
14,CC(C)C1(C(C)C)CC(c2ccc(N)cc2)=CC=C1N,288
15,Cc1cccc(NC(=O)NCC(=O)N(c2ccccc2)C(C(=O)OC(C)(C)C)c2ccc(Cl)c(Cl)c2)c1 (racemic),176
16,O=CCOc1ccc(Oc2ccccc2)cc1,79 to 81
17,O=C(CCN1CCN(c2cccc3[nH]ccc23)CC1)c1csc2ccc(F)cc12,76 to 78
18,CCCCC(CC(=O)O)C(=O)O (configuration not stated),82 to 83
19,CNCC(=O)N1c2ccccc2N2CCc3cccc(c32)C1C (configuration not stated),106 to 110
20,O=C1c2ccccc2C(=O)N1C(=O)c1cc(Oc2ccc(C(F)(F)F)cc2Cl)ccc1[N+](=O)[O-],160
21,Cc1ccc(Sc2cc(C#N)ccc2C#N)cc1,155
22,CCCC(Oc1ccc(Cl)c(C)c1)C(=O)NCc1ccccc1 (configuration not stated),75 to 78
23,Brc1ccc(-c2cccs2)s1,55 to 56
24,CN1C2CCC1CC(NC(=O)c1cc(Cl)cc3oc(-c4ccccc4)nc13)C2 (configuration not stated),187 to 190
25,Cc1[nH]c2ccc(NS(C)(=O)=O)cc2c1C1=CCN(C)CC1,176 to 184
26,CC=CC(=O)OCC(C)(Sc1cc2ccccc2n1C)c1ccccc1 (configuration not stated),56 to 57

row,Structure (SMILES),melting point [°C]
1,CC1Cc2c(c(Cl)cc(Cl)c2-n2nc(C(C)(C)C)oc2=O)O1 (configuration not stated),112 to 115
2,CCOC(=O)c1ccccc1-n1nnnc1C,98 to 100
3,O=C1NC(=O)c2c1c(-c1ccccc1)cc1[nH]c3ccc(OP(=O)(O)O)cc3c21,285 to 295
4,CC(C)Cc1ccc(C(Nc2cccc(C(=O)n3cc(CCCC(=O)O)c4ccccc43)c2)c2ccc(CC(C)C)cc2)cc1,74.8
5,COc1cccc(C(O)CCN2CC=C(c3ccc(Cl)cc3)CC2)c1 (configuration not stated),100 to 102
6,CC(C)c1ccc(NC(=O)C2CCCc3c(OCc4ccccc4)cccc32)cc1 (configuration not stated),170
7,CCCCCCC(CO)c1nc([N+](=O)[O-])c[nH]1 (configuration not stated),83 to 84
8,Cc1c(Cl)c(C(C)(C)C)c(Cl)c(C)c1S(=O)(=O)Cl,148
9,CCCCCCCCCCOCCC(=O)O,41.5 to 43.9
10,Cn1cc(C(=O)NCc2ccc(Cl)cc2)c(=O)c2cc(CC3CCOCC3)ccc21,219 to 221
11,CC(=O)Nc1cc(N)c(Cl)cc1NC(C)=O,237
12,CC1Cc2cccc3c4oc(=O)c(Br)c(O)c4c(=O)n1c23 (configuration not stated),221 to 222
13,COc1ccc(-c2[nH]nc3c2C(=O)c2c(NC(=O)CN4CCC(C(N)=O)CC4)cccc2-3)cc1,> 300
14,CC(C)Sc1c(C2=NC(C)(C)CO2)oc(Br)c1Br,71 to 72
15,COc1ccc2sc(C(N)=O)c(S(=O)(=O)C(C)C)c2c1,169 to 170
16,O=C1CCC2(Cc3ccc(Br)cc3)C(=O)N(c3cc(Cl)cc(Cl)c3)C(=O)N12 (configuration not stated),230
17,COC(=O)c1cc(=O)c2cc(SC)ccc2[nH]1,264 to 266
18,O=C(O)CN1CC(=O)N(Cc2ccc(Cl)c([N+](=O)[O-])c2)C1=O,167 to 168
19,COc1ccc(-c2nnc3c4ccccc4c(OC4CCNC4=O)nn23)cc1 (configuration not stated),290 to 293
20,O=c1oc(-c2ccccc2)cc(O)c1SCC1CCCCC1,141 to 143
21,CN(C(=O)NCCc1ccc(F)cc1)c1cccc(-c2ccc(CCC(=O)O)cc2)c1,146
22,CC(=O)N1CCN(Cc2ccc(CCn3cnc4cc(-c5ccc(Cl)cc5)sc4c3=O)cc2)C(=O)C1,204 to 207
23,COc1cc(NCCCCCCO)c2nccc(C)c2c1,97 to 99
24,NS(=O)(=O)c1cc2cc(O)c(O)cc2s1,233 to 235
25,CC(C(=O)O)c1ccc2nc3c(Cl)cc(Cl)cn3c(=O)c2c1 (configuration not stated),241
26,CCOC(=O)c1[nH]c2cc3[nH]c(C)c(C(=O)OCC)c3c(C)c2c1C,216

row,Structure (SMILES),melting point [°C]
1,CCN(CC)c1ccc(-c2ccc3c(c2)C=C(C(=O)Nc2ccc(CN(C)C4CCOCC4)cc2)CCN3C)cc1,178 to 180
2,Cc1ccc(C2CC(n3cncn3)c3ccccc3N2)cc1 (configuration not stated),146 to 148
3,O=c1nc(-c2cccc(CS(=O)(=O)Cc3ccccc3)n2)sc2ccccc12,246 to 248
4,CC(C)(C)[N+]([O-])=Cc1ccc(S(N)(=O)=O)cc1,219
5,O=C(Nc1cc(Cl)cc(Cl)c1)c1cccc(Cl)c1O,255 to 256
6,Nc1c(NCCCOc2cccc(C3OCCO3)c2)c(=O)c1=O,209 to 210
7,CC1=C(C(=O)O)C(c2cccc([N+](=O)[O-])c2)C(C(=O)OCCNC(=O)c2cccnc2)=C(C)N1 (configuration not stated),151 to 152
8,COC(=O)c1ccc2c(c1)CC(=O)O2,102 to 103
9,COc1ccc(OCC2(Cc3c(C)[nH]c(=O)c(C(C)C)c3O)CC2)cc1,222 to 223
10,CCCNC(=S)NS(=O)(=O)c1c(NC(=O)OCC)sc(C)c1C#N,167 to 168
11,COc1ccc(C(=O)CCC2CCN(C(C)=O)CC2)cc1NC(=O)C(F)(F)F,77 to 79
12,O=C(O)c1cccc2nc(OCC(F)(F)F)n(Cc3ccc(-c4ccccc4-c4nnn[nH]4)cc3)c12,204 to 206
13,Cc1ccc(S(=O)(=O)NC(C)C(=O)Cl)cc1 (configuration not stated),101 to 102
14,CCOC(=O)c1cn(CC(I)=C(I)I)c(Cl)c1Cl,117 to 119
15,CCOC(=O)c1cnn(-c2ncc(Cl)cc2Cl)c1N,98 to 101
16,O=C1c2cc(F)ccc2S(=O)(=O)c2cc(C3=NCCN3)ccc21,248 to 249
17,COc1ncc(CN2C(=O)C3(COc4cc5c(cc43)CCO5)c3ccccc32)cn1 (configuration not stated),203 to 204
18,N#Cc1cc(N)ccc1Sc1ccccc1,73 to 75
19,Fc1ccc(-c2ncn(C3CC3)c2-c2ccncc2)cc1,129 to 130
20,COCCc1nc2c(N)nc3ccccc3c2n1CC1(O)CCOCC1,205 to 206
21,Oc1ccc(-c2nc3cc(O)ccc3o2)c(O)c1,> 300
22,C=CCn1c(C)c(C)c2cnnc(OCc3ccccc3)c21,115 to 116
23,N#CCCn1nc2ccc(Cl)nn2c1=O,166 to 168
24,CCC(=O)N(CC)c1cccc(-c2ccc3nnc(C)n3n2)c1,145 to 148
25,O=C(O)c1cn(-c2ccccc2)c2cc(-c3ccncc3)ccc2c1=O,> 325
26,O=C(O)c1cc2c(C(F)(F)F)cccc2s1,178 to 179

row,Structure (SMILES),melting point [°C]
1,CN(O)C(=O)C=Cc1ccc(F)cc1,141 to 142
2,CCCCc1ccc(-c2cc(Cl)c(C#N)cn2)cc1,107
3,Nc1nsnc1NCCCOc1cccc(CN2CC=CCC2)c1,99.5 to 104
4,Cc1nn(C)c(C)c1-c1cccc(-n2c(N)nc3ccccc32)c1,198 to 200
5,CCOC(=O)CCC(Oc1cc(OCc2ccsc2)ccc1C(N)=S)c1ccccc1C (racemic),134 to 135
6,COC(=O)Cn1sc2nc(C)cc(C)c2c1=O,89 to 91
7,N#Cc1cnn(-c2nc(F)c(C(F)(F)F)cc2Cl)c1N,156 to 159
8,COCCCNC(=O)c1ccc(C(=O)N2CCN(c3ncccc3NC(C)C)CC2)nc1,95 to 96
9,CC1Cc2cc3c(cc2C(c2ccc([N+](=O)[O-])cc2)=NN1c1nncs1)OCO3 (configuration not stated),212 to 213
10,CC(C)C(C(=O)O)N1CC(N)C1=O (configuration not stated),178 to 183
11,COc1ccccc1CN1CCN(CCN2CCC(O)(c3ccccc3)CC2)C(c2ccccc2)C1 (configuration not stated),63 to 65
12,CN1C2CCC1CC(c1n[nH]c3cc(F)ccc13)C2 (configuration not stated),235 to 236
13,COc1ccccc1N1CCN(CCNc2ccccn2)CC1,89 to 94
14,O=[N+]([O-])c1nn(-c2c(Cl)cc(C(F)(F)F)cc2Cl)cc1S(=O)C(F)(F)F (configuration not stated),124 to 130
15,CC1(n2cccc2)CN(c2c(F)cc3c(=O)c(C(=O)O)cn(C4CC4)c3c2F)C1,249 to 252
16,C#CC1(C)OC(=O)Nc2ccc(-c3cccc(Cl)c3)cc21 (configuration not stated),185 to 186
17,CCOc1cc2c(C)c(CCN3CCN(c4ccccc4OC)CC3)c(=O)oc2cc1OC,143 to 145
18,O=C(NC1C(O)=COC2=C1SC([N+](=O)[O-])C2)c1ccc(C(F)(F)F)cc1 (configuration not stated),219 to 220
19,CN1CCN(c2cnc([N+](=O)[O-])c(Cl)n2)CC1,50
20,CCCC1=C(C#N)C(c2ccccc2Cl)c2c(n[nH]c2-c2ccccc2OC)N1 (configuration not stated),> 270
21,O=c1c(C(F)(F)F)cn(C2CC(O)C(CO)O2)c(=O)n1C1CCCO1 (configuration not stated),127 to 128
22,Cc1cc(C2=NOC(c3cc(Cl)cc(Cl)c3)(C(F)(F)F)C2)ccc1C(=O)Nc1ncc(Br)cn1 (configuration not stated),178 to 181
23,CCCCC(=Nc1sccc1C(=O)NCCC)OC,68 to 70
24,Cc1cccc(Cl)c1C(=O)N[C@@H](Cc1ccc(-c2cn(C)c(=O)n(C)c2=O)cc1)C(=O)O,234 to 236
